Assays:
Type in all cases: cell-based
[1] = molecular target: T1, EGFR L858R (Ba/F3 cells) (Homo sapiens, UniProt P00533, L858R); assay: Inhibitor activity on EGFR-dependent cell growth (CellTiter-Glo, 72 h), Ba/F3 EGFR L858R; conditions: read-out: BaF3 L858R IC50
T1 construct: expressed in transfected cells; host or cells: Ba/F3 (murine pro-B cells), retroviral transduction, puromycin selection, IL3-independent pool
Procedure, shortened: (§1)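 IC50s derive from a sigmoidal dose–response fit of CellTiter-Glo signal. The signal was normalised between […]-treated cells and cell-free medium. Ba/F3 mutant-EGFR cells, seeded at 400–800/well depending on the line, had 72 h of exposure to a 10-point, 3-fold compound series.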

[2] = molecular target: T2, EGFR exon 19del (Ba/F3 cells) (Homo sapiens, UniProt P00533); assay: Inhibitor activity on EGFR-dependent cell growth (CellTiter-Glo, 72 h), Ba/F3 EGFR exon 19del; conditions: Ba/F3 EGFR exon 19del cell growth, read-out: BaF3 Del19 IC50
Procedure, shortened: as §1

[3] = molecular target: T3, EGFR L858R/C797S (Ba/F3 cells) (Homo sapiens, UniProt P00533, C797S/L858R); assay: Inhibitor activity on EGFR-dependent cell growth (CellTiter-Glo, 72 h), Ba/F3 EGFR L858R/C797S; conditions: read-out: BaF3 L858R/C797S IC50
T3 construct: expressed in transfected cells; host or cells: Ba/F3 (murine pro-B cells), retroviral transduction, puromycin selection, IL3-independent pool
Procedure, shortened: as §1

[4] = molecular target: T1, EGFR L858R (Ba/F3 cells); assay: Inhibitor activity on EGFR phosphorylation (pEGFR AlphaLISA, 2 h), Ba/F3 EGFR L858R
Procedure, shortened: (§2)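 pEGFR AlphaLISA readout after 2 h compound exposure; IC50 from 10-point, 3-fold dilutions (10 mM DMSO stock). Ba/F3 mutant lines grown without IL3, 50K cells/well; CUTO14 12.5K cells/well.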

[5] = molecular target: T2, EGFR exon 19del (Ba/F3 cells); assay: Inhibitor activity on EGFR phosphorylation (pEGFR AlphaLISA, 2 h), Ba/F3 EGFR exon 19del; conditions: read-out: Del19 IC50 (pEGFR)
Procedure, shortened: as §2

[6] = molecular target: T3, EGFR L858R/C797S (Ba/F3 cells); assay: Inhibitor activity on EGFR phosphorylation (pEGFR AlphaLISA, 2 h), Ba/F3 EGFR L858R/C797S
Procedure, shortened: as §2

[7] = molecular target: T4, EGFR WT (Ba/F3 cells) (Homo sapiens, UniProt P00533); assay: Inhibitor activity on EGFR-dependent cell growth (CellTiter-Glo, 72 h), Ba/F3 EGFR WT; conditions: read-out: BaF3 WT IC50
T4 construct: expressed in transfected cells; host or cells: Ba/F3 (murine pro-B cells), retroviral transduction, puromycin selection, maintained with EGF
Procedure, shortened: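 This growth assay used Ba/F3 cells that depend on wild-type EGFR and are kept in EGF without IL3. Compounds were made up as 10 mM DMSO stocks and diluted 3-fold over 10 points. 120 nL went onto 600 cells/well. After 72 hours, 40 μL CellTiter-Glo was added and luminescence read on EnVision after 30 min.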

[8] = molecular target: T5, EGFR exon 20 NPG Ins D770_N771 (Ba/F3 cells) (Homo sapiens, UniProt P00533, INS770NPG); assay: Inhibitor activity on EGFR-dependent cell growth (CellTiter-Glo, 72 h), Ba/F3 EGFR exon 20 NPG Ins; conditions: read-out: BaF3 NPG IC50
T5 construct: expressed in transfected cells; host or cells: Ba/F3 (murine pro-B cells), retroviral transduction, puromycin selection, IL3-independent pool
Procedure, shortened: as §1

[9] = molecular target: T6, EGFR exon 20 ASV Ins V769_D770 (Ba/F3 cells) (Homo sapiens, UniProt P00533, INS769ASV); assay: Inhibitor activity on EGFR-dependent cell growth (CellTiter-Glo, 72 h), Ba/F3 EGFR exon 20 ASV Ins; conditions: read-out: BaF3 ASV IC50
T6 construct: expressed in transfected cells; host or cells: Ba/F3 (murine pro-B cells), retroviral transduction, puromycin selection, IL3-independent pool
Procedure, shortened: as §1

[10] = molecular target: T7, EGFR exon 20 SVD Ins D770_N771 (Ba/F3 cells) (Homo sapiens, UniProt P00533, INS770SVD); assay: Inhibitor activity on EGFR-dependent cell growth (CellTiter-Glo, 72 h), Ba/F3 EGFR exon 20 SVD Ins; conditions: read-out: BaF3 SVD IC50
T7 construct: expressed in transfected cells; host or cells: Ba/F3 (murine pro-B cells), retroviral transduction, puromycin selection, IL3-independent pool
Procedure, shortened: as §1

[11] = molecular target: T8, EGFR exon 20 FQEA Ins A763_V764 (Ba/F3 cells) (Homo sapiens, UniProt P00533, INS763FQEA); assay: Inhibitor activity on EGFR-dependent cell growth (CellTiter-Glo, 72 h), Ba/F3 EGFR exon 20 FQEA Ins; conditions: read-out: BaF3 FQEA IC50
T8 construct: expressed in transfected cells; host or cells: Ba/F3 (murine pro-B cells), retroviral transduction, puromycin selection, IL3-independent pool
Procedure, shortened: as §1

[12] = molecular target: EGFR (CUTO14 cells) (Homo sapiens, UniProt P00533); assay: Inhibitor activity on EGFR phosphorylation (pEGFR AlphaLISA, 2 h), CUTO14 cells
Procedure, shortened: as §2

[13] = molecular target: T5, EGFR exon 20 NPG Ins D770_N771 (Ba/F3 cells); assay: Inhibitor activity on EGFR phosphorylation (pEGFR AlphaLISA, 2 h), Ba/F3 EGFR exon 20 NPG Ins
Procedure, shortened: as §2

[14] = molecular target: T6, EGFR exon 20 ASV Ins V769_D770 (Ba/F3 cells); assay: Inhibitor activity on EGFR phosphorylation (pEGFR AlphaLISA, 2 h), Ba/F3 EGFR exon 20 ASV Ins; conditions: EGFR phosphorylation, AlphaLISA, 2 hours; read-out: ASV IC50 (pEGFR)
Procedure, shortened: as §2

[15] = molecular target: T7, EGFR exon 20 SVD Ins D770_N771 (Ba/F3 cells); assay: Inhibitor activity on EGFR phosphorylation (pEGFR AlphaLISA, 2 h), Ba/F3 EGFR exon 20 SVD Ins
Text: Example B. Inhibitor Activity on EGFR phosphorylation (pEGFR)
EGFR mutant Ba/F3 cells were generated by transduction with retrovirus containing vectors expressing EGFR L858R, EGFR exon 19del, EGFR L858R/C797S, EGFR exon 20 NPG Ins D770_N771, EGFR exon 20 ASV Ins V769_D770, or EGFR exon 20 SVD Ins D770_N771 genes along with a puromycin selection marker. Transduced cells are selected with puromycin for 7 days and are then be transferred into culture media without Interleukin 3 (IL3). Surviving cells are confirmed to express EGFR by Western blot and maintained as a pool. CUTO14 cells were obtained from Dr. Robert C. Doebele at the University of Colorado. The IC50 date are included in Table 6 and Table 7.
1.1 Cells are harvested from flask into cell culture medium and the cell number counted.
1.2 Cells are diluted with culture medium to the desired density and 40 μL of cell suspension is added into each well of 384-well cell culture plate and the seeding density is 50K cells/well (Ba/F3) or 12.5K cells/well (CUTO14).
2 Compound Preparation and Treatment
2.1 Test compounds are dissolved to 10 mM in a DMSO stock solution. 45 μL of stock solution is transferred to a 384 polypropylene plate (pp-plate). Perform 3-fold, 10-point dilution via transferring 15 μL compound into 30 μL DMSO using a TECAN (EVO200) liquid handler.
2.2 Spin plates at room temperature at 1,000 RPM for 1 minute.
2.3 Transfer 5 nL of diluted compound from compound source plate into the cell plate.
2.4 After compound treatment for 2 hours, perform pEGFR detection by AlphaLISA for compound treatment plates as described in “Detection” section.
3 Detection by pEGFR AlphaLISA (Perkin-Elmer)
3.1 Plates are removed from incubators and equilibrated at room temperature for 10 minutes, and media was removed
3.2 10 μL of lysis buffer is added and plates shaken at 600 rpm for 1 hr.
3.3 Prepare acceptor mix just before use and dispense 5 μL of acceptor mix to all the wells. Shake 350 rpm for Ihr in the dark
3.4 Prepare donor mix under low light conditions prior to use. Dispense 5 μL of donor mix to all the wells. Mix well on the shaker, seal and wrap in aluminum foil and incubate 1.5 hrs at room temperature in the dark
3.5 Transfer 18.5 μL mixture to OptiPlate 384, and read using an Envision. The IC50 date were included in Table 6 and Table 7.

T1 sequence (P00533 25-1210 L858R): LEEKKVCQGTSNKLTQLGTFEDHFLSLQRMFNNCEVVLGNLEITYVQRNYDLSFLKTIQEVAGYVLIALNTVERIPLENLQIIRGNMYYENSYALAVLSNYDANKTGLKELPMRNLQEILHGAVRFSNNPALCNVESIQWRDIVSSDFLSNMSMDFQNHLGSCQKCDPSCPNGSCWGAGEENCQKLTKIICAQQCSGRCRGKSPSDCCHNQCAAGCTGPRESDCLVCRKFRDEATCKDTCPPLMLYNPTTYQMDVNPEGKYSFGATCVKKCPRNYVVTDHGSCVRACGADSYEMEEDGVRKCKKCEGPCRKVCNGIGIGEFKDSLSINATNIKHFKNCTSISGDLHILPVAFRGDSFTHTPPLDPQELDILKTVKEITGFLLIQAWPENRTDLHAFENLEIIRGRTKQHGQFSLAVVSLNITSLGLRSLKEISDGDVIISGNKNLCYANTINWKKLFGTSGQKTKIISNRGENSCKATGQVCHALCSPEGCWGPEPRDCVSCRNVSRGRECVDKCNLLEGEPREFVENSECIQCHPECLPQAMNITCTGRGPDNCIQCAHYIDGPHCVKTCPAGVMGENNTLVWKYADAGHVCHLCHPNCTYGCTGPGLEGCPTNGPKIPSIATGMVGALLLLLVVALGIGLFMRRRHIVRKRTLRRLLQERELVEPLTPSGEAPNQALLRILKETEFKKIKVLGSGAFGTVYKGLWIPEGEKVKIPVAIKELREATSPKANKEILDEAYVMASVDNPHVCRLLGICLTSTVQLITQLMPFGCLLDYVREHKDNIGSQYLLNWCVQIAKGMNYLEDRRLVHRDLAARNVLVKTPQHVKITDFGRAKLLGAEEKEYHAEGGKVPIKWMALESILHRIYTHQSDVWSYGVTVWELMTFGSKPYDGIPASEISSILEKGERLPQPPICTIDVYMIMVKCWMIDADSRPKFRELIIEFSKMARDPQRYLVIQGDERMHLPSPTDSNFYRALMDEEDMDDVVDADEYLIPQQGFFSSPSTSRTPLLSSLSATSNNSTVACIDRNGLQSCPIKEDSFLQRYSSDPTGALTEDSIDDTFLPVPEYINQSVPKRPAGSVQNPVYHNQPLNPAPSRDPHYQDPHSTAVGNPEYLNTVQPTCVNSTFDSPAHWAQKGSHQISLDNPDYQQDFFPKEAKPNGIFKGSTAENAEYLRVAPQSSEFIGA
T8 sequence (P00533 with tags, fused parts or gaps INS763FQEA): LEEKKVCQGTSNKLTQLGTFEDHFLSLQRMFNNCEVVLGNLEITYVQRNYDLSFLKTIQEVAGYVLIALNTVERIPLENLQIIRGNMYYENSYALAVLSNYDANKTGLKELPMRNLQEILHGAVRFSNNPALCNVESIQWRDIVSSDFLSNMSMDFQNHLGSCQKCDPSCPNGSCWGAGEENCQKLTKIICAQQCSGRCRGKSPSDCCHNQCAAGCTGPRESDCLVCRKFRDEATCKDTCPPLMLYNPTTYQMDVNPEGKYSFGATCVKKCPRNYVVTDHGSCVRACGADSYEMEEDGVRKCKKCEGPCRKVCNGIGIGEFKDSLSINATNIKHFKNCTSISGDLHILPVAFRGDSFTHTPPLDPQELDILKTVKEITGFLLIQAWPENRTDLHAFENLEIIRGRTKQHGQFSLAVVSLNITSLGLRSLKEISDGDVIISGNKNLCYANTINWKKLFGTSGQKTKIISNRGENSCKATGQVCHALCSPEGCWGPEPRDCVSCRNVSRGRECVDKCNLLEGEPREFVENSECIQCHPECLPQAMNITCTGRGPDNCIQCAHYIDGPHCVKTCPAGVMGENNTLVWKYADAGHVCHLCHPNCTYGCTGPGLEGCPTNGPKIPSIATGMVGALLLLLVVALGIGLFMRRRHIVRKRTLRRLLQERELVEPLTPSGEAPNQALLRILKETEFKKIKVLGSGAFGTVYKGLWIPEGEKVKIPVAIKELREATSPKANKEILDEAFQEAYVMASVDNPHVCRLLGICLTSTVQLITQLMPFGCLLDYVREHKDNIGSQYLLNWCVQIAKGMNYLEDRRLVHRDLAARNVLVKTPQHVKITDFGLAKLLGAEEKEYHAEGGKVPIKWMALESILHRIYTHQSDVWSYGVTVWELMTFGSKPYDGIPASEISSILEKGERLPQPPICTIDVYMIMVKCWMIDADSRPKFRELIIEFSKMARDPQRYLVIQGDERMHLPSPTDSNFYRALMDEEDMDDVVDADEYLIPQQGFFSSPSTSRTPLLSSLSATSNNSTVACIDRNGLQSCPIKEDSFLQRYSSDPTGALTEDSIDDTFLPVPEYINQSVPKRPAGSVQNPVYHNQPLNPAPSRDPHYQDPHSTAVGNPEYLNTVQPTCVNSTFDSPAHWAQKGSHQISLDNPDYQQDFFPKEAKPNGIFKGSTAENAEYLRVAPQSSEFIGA
T4 sequence (P00533 25-1210): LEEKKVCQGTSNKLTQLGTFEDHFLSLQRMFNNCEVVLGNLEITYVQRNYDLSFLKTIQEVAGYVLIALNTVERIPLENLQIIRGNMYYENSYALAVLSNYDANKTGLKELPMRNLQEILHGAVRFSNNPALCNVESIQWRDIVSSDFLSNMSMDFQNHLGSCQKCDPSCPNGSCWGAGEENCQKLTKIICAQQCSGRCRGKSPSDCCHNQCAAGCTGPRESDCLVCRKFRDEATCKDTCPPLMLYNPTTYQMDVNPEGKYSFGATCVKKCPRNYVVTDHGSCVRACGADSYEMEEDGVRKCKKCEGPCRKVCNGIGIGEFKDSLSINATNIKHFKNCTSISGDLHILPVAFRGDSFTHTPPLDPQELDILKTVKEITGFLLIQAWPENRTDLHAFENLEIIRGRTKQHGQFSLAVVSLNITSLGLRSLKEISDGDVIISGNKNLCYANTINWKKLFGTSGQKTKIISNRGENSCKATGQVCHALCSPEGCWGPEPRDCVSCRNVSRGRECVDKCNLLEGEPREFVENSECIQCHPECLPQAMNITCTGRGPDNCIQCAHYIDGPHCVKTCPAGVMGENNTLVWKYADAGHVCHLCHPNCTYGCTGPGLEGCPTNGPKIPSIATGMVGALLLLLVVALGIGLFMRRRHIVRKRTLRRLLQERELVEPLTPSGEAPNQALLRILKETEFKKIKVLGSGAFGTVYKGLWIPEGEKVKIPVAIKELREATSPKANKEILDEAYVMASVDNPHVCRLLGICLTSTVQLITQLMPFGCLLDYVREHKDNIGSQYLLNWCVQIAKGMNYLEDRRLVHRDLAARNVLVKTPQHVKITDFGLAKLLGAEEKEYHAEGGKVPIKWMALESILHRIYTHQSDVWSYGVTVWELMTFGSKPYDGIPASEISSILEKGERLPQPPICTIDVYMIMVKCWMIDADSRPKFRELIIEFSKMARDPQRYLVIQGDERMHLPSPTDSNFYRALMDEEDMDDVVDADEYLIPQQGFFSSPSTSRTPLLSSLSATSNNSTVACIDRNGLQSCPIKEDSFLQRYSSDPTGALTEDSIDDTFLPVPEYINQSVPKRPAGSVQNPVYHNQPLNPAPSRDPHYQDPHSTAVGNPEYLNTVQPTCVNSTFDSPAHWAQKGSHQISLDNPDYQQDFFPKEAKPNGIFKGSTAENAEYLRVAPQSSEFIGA
T3 sequence (P00533 25-1210 C797S/L858R): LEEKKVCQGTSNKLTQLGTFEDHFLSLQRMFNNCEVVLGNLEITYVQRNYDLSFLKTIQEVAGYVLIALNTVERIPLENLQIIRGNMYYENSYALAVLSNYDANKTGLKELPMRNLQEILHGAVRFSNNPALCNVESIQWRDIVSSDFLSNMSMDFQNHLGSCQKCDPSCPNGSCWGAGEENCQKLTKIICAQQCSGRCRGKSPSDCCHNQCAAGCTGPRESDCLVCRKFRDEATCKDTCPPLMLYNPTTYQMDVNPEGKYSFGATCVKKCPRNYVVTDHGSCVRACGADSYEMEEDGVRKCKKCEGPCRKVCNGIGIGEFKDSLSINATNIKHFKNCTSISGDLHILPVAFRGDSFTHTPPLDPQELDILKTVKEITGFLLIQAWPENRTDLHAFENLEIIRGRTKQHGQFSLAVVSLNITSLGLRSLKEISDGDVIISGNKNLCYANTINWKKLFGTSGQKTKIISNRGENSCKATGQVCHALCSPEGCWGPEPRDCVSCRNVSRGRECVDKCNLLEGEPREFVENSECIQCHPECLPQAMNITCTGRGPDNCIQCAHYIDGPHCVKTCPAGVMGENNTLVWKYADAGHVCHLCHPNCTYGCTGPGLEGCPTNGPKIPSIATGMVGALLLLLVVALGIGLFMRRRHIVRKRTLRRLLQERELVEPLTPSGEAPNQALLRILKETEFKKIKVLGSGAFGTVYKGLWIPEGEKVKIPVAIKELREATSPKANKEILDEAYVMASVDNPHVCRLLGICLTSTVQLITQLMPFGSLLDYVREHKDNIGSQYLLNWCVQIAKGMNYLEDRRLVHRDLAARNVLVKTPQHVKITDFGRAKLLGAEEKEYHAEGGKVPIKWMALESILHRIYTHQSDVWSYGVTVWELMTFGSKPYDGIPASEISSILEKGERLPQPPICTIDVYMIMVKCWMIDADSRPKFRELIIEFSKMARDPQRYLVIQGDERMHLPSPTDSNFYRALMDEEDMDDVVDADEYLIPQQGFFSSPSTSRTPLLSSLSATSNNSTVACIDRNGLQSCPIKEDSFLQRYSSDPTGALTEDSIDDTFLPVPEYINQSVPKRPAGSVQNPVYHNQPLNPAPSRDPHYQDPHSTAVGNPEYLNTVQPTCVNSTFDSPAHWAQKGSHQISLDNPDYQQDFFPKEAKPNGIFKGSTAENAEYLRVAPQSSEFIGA

SMILES | IC50 [1] | IC50 [2] | IC50 [3] | IC50 [4] | IC50 [5] | IC50 [6] | IC50 [7] | IC50 [8] | IC50 [9] | IC50 [10] | IC50 [11] | IC50 [12] | IC50 [13] | IC50 [14] | IC50 [15]
COc1c(F)cccc1Nc1c(-c2ccnc(C)n2)[nH]c2c1C(=O)NCC2C[C@@H]1COCCO1 (single isomer, unassigned) [Compound 604] | < 0.1 µM | < 0.1 µM | < 0.1 µM | < 0.1 µM | < 0.1 µM | < 0.1 µM | 0.1 to 1 µM | < 0.1 µM | < 0.1 µM | < 0.1 µM | < 0.1 µM | < 0.1 µM |  |  | 
COc1c(F)cccc1Nc1c(-c2ccnc(C)n2)[nH]c2c1C(=O)NCC2C[C@H]1COCCO1 (single isomer, unassigned) [Compound 606] | < 0.1 µM | < 0.1 µM | < 0.1 µM | < 0.1 µM | < 0.1 µM | < 0.1 µM | 0.1 to 1 µM | < 0.1 µM | < 0.1 µM | < 0.1 µM | < 0.1 µM | < 0.1 µM |  |  | 
COc1c(Cl)cccc1Nc1c(-c2ccnc(N)n2)[nH]c2c1C(=O)NCC2 [Compound 148, 2-(2-aminopyrimidin-4-yl)-3-((3-chloro-2-methoxyphenyl)amino)-1,5,6,7-tetrahydro-4H-pyrrolo[3,2-c]pyridin-4-one] |  |  |  |  |  |  | 0.1 to 1 µM | < 0.1 µM |  |  | 0.1 to 1 µM | < 0.1 µM | < 0.1 µM | < 0.1 µM | < 0.1 µM
COc1c(F)cccc1Nc1c(-c2ccncn2)[nH]c2c1C(=O)NC[C@H]2C[C@@H]1COCCO1 [Compound 569, (7R)-7-[(2R)-1,4-dioxan-2-ylmethyl]-3-[(3-fluoro-2-methoxyphenyl)amino]-2-(pyrimidin-4-yl)-1H,5H,6H,7H-pyrrolo[3,2-c]pyridin-4-one] | < 0.1 µM | < 0.1 µM | < 0.1 µM | < 0.1 µM | < 0.1 µM | < 0.1 µM | 0.1 to 1 µM | < 0.1 µM | < 0.1 µM | < 0.1 µM | < 0.1 µM | < 0.1 µM |  |  | 
COCC[C@@H]1CNC(=O)c2c1[nH]c(-c1ccnc(N)n1)c2Nc1cccc(Cl)c1OC [Compound 726, (7R)-2-(2-aminopyrimidin-4-yl)-3-[(3-chloro-2-methoxyphenyl)amino]-7-(2-methoxyethyl)-1H,5H,6H,7H-pyrrolo[3,2-c]pyridin-4 one] |  |  |  |  |  |  | < 0.1 µM | < 0.1 µM | < 0.1 µM | < 0.1 µM | < 0.1 µM | < 0.1 µM | < 0.1 µM | < 0.1 µM | < 0.1 µM
COc1ncc2nccc(-c3[nH]c4c(c3Nc3cccc(Cl)c3OC)C(=O)NCC4)c2n1 [compound 408] |  |  |  |  |  |  | < 0.1 µM | < 0.1 µM | < 0.1 µM | < 0.1 µM | < 0.1 µM | < 0.1 µM | < 0.1 µM | < 0.1 µM | < 0.1 µM
COc1c(Cl)cccc1Nc1c(-c2ccnc3c(N)noc23)[nH]c2c1C(=O)NCC2 [compound 524, 2-{3-amino-[1,2]oxazolo[4,5-b]pyridin-7-yl}-3-[(3-chloro-2-methoxyphenyl)amino]-1H,5H,6H,7H-pyrrolo[3,2-c]pyridin-4-one] |  |  |  |  |  |  | 0.1 to 1 µM | < 0.1 µM | < 0.1 µM | < 0.1 µM |  | < 0.1 µM | < 0.1 µM | < 0.1 µM | < 0.1 µM

The remaining lines, values ahead:

IC50 [1] | IC50 [2] | IC50 [3] | IC50 [4] | IC50 [5] | IC50 [6] | IC50 [7] | IC50 [8] | IC50 [9] | IC50 [10] | IC50 [11] | IC50 [12] | IC50 [13] | IC50 [14] | IC50 [15] | SMILES
 |  |  |  |  |  |  | < 0.1 µM | < 0.1 µM | < 0.1 µM | < 0.1 µM | < 0.1 µM | < 0.1 µM | < 0.1 µM | < 0.1 µM | C=CC(=O)N1CCC2(CC1)CNC(=O)c1c2[nH]c(-c2ccnc3ccc(OC)nc23)c1Nc1cccc(F)c1OC [Compound 160, 1-acryloyl-3′-((3-fluoro-2-methoxyphenyl)amino)-2′-(6-methoxy-1,5-naphthyridin-4-yl)-5′,6′-dihydrospiro[piperidine-4,7′-pyrrolo[3,2-c]pyridin]-4′(1′H)-one]
 |  |  |  |  |  | 0.1 to 1 µM | < 0.1 µM | < 0.1 µM | < 0.1 µM | < 0.1 µM | < 0.1 µM | < 0.1 µM | < 0.1 µM | < 0.1 µM | COc1c(Cl)cccc1Nc1c(-c2ccnc(Nc3cnnn3C)n2)[nH]c2c1C(=O)NCC2 [compound 512, 3-[(3-chloro-2-methoxyphenyl)amino]-2-{2-[(3-methyl-1,2,3-triazol-4-yl)amino]pyrimidin-4-yl}-1H,5H,6H,7H-pyrrolo[3,2-c]pyridin-4-one]
 |  |  |  |  |  | < 0.1 µM | 0.1 to 1 µM | < 0.1 µM | < 0.1 µM | < 0.1 µM | 0.1 to 1 µM | < 0.1 µM | < 0.1 µM | < 0.1 µM | COc1c(Cl)cccc1Nc1c(-c2ccnc(Nc3cnn(CC(F)F)c3)n2)[nH]c2c1C(=O)NCC2 [compound 514, 3-[(3-chloro-2-methoxyphenyl)amino]-2-(2-{[1-(2,2-difluoroethyl)pyrazol-4-yl]amino}pyrimidin-4-yl)-1H,5H,6H,7H-pyrrolo[3,2-c]pyridin-4-one]

From patent US20240101576A1, “HETEROCYCLIC INHIBITORS OF EGFR AND/OR HER2, FOR USE IN THE TREATMENT OF CANCER” (Scorpion Therapeutics, Inc., priority 2020, published 2024)
